Experimental data reported in ChEMBL document CHEMBL3232874, “The applications of binuclear metallohydrolases in medicine: recent advances in the design and development of novel drug leads for purple acid phosphatases, metallo-β-lactamases and arginases” (Eur J Med Chem, 2014).
Square brackets hold non-standard residues; d marks the D form. Peptide text beside a SMILES is read from it. * marks the point of attachment. F2Pmp = N[C@@H](Cc1ccc(C(F)(F)P(=O)(O)O)cc1)C(=O)O; Phe(4-COOH) = N[C@@H](Cc1ccc(C(=O)O)cc1)C(=O)O; Fmoc = O=C(OCC1c2ccccc2-c2ccccc21)*

Legend:
[1] = Inhibition of metallo-beta-lactamase CphA (unknown origin)
[2] = Inhibition of metallo-beta-lactamase VIM2 (unknown origin)
[3] = Inhibition of metallo-beta-lactamase L1 (unknown origin)
[4] = Inhibition of metallo-beta-lactamase BcII (unknown origin)
[5] = Inhibition of pig purple acid phosphatase at pH 3.3; set-up: species or system Sus scrofa
[6] = Inhibition of pig purple acid phosphatase at pH 4.9; set-up: species or system Sus scrofa
[7] = Inhibition of arginase (unknown origin); set-up: species or system Homo sapiens
[8] = molecular target: T1, Fe(3+)-Zn(2+) purple acid phosphatase (Phaseolus vulgaris, UniProt P80366); assay: Inhibition of red kidney beans purple acid phosphatase
T1 sequence (P80366 whole entry): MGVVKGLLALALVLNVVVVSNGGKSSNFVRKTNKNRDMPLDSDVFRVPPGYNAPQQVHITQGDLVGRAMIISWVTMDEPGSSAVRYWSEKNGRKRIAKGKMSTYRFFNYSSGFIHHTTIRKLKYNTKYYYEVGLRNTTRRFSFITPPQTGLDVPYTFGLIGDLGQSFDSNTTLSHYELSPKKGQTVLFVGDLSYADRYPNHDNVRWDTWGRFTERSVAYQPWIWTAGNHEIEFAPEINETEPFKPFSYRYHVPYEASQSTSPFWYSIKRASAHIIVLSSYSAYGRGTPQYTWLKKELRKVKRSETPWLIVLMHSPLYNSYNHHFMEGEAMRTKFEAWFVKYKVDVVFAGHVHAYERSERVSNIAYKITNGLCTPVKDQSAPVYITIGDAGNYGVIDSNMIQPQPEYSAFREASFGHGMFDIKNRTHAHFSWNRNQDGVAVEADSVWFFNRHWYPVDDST

[9] = Inhibition of Bacillus cereus metallo-beta-lactamase BcII
[10] = molecular target: Metallo-beta-lactamase type 2 (Bacteroides fragilis, UniProt P25910); assay: Competitive inhibition of Bacteroides fragilis metallo-beta-lactamase CcrA
Metallo-beta-lactamase type 2, sequence (P25910 whole entry): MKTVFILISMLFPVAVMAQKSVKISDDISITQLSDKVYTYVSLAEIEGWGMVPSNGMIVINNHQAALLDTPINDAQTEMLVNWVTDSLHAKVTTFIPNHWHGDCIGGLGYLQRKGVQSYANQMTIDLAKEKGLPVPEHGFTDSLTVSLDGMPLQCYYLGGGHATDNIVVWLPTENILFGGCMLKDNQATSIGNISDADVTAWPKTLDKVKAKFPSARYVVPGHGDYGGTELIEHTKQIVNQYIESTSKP

[11] = Inhibition of human recombinant purple acid phosphatase at pH 4.9
[12] = Inhibition of human recombinant purple acid phosphatase at pH 3.3
[13] = Inhibition of metallo-beta-lactamase IMP-1 (unknown origin) using nitrocefin as substrate incubated for 15 mins prior to substrate addition
[14] = Inhibition of metallo-beta-lactamase CcrA (unknown origin)
[15] = Inhibition of metallo-beta-lactamase IMP-1 (unknown origin)
[16] = Inhibition of human purple acid phosphatase
[17] = Inhibition of Bacillus cereus 5/B/6 metallo-beta-lactamase […] incubated for 1 min prior to substrate addition by spectrophotometry
Beta-lactamase L1 = Beta-lactamase L1 (Stenotrophomonas maltophilia, UniProt P52700); assay: Inhibition of Stenotrophomonas maltophilia metallo-beta-lactamase L1 after 5 mins
Beta-lactamase L1, sequence (P52700 whole entry): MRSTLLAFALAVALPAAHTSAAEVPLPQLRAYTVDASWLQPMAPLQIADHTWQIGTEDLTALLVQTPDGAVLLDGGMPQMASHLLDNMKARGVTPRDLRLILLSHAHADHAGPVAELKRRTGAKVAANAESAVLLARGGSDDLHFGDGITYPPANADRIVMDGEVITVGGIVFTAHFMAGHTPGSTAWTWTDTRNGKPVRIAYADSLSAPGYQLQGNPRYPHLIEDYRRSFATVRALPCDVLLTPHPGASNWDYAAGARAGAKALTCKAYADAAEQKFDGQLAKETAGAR

[18] = Competitive inhibition of Bacillus cereus 569/H metallo-beta-lactamase BcII by Eadie-Hofstee plot analysis
[19] = Inhibition of human arginase
[20] = Inhibition of Plasmodium berghei arginase
Arginase-1 = molecular target: T2, Arginase-1 (Rattus norvegicus, UniProt P07824); assay: Inhibition of rat liver arginase
T2 sequence (P07824 whole entry): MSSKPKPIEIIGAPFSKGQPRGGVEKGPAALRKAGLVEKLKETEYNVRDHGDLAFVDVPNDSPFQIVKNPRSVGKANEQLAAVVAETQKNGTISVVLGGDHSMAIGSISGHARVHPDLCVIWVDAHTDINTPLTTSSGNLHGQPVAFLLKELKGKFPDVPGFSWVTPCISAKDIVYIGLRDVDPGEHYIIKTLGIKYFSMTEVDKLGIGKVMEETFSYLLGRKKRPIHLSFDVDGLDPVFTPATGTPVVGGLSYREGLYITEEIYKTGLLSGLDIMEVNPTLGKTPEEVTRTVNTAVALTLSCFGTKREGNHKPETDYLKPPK

[21] = Inhibition of mouse macrophage arginase

CC(NC(=O)COc1ccccc1)C(O)C(F)(F)F (stereo unspecified)
Ki [1]: 1500 nM
Ki [2]: 1500 nM
Ki [3]: 1500 nM
Ki [4]: 1500 nM

C[C@H](NC(=O)[C@H](Cc1ccc(C(F)(C(=O)O)C(=O)O)cc1)NC(=O)[C@H](CCC(=O)O)NC(=O)OCC1c2ccccc2-c2ccccc21)C(N)=O
Ki [5]: 8 µM
Ki [6]: 49 µM

NNC(N)=S [THIOSEMICARBAZIDE]
Ki [7]: 100 µM

O=P(O)(O)CS
IC50 [8]: 80 µM

C[C@H](NC(=O)[C@H](Cc1ccc(CC(=O)O)c(C(=O)O)c1)NC(=O)[C@H](CCC(=O)O)NC(=O)OCC1c2ccccc2-c2ccccc21)C(N)=O
Ki [5]: 201 µM
Ki [6]: 279 µM

O=C(O)C(S)c1ccc(F)cc1 (stereo unspecified)
Ki [9]: 90 nM

O=P(O)(O)CP(=O)(O)O [MEDRONIC ACID]
Ki [8]: 140 µM

O=C(O)C(S)c1ccccc1 (stereo unspecified)
Ki [9]: 90 nM

COc1ccc(C(S)C(=O)O)cc1 (stereo unspecified)
Ki [9]: 90 nM

O=C(O)CCP(=O)(O)O
Ki [8]: 160 µM

c1ccc(-c2nnn[nH]2)c(-c2ccc(Cn3c4ccccc4c4ccccc43)cc2)c1
IC50 [10]: 300 nM

C[C@H](NC(=O)[C@H](Cc1ccc(OC(F)(C(=O)O)C(=O)O)cc1)NC(=O)[C@H](CCC(=O)O)NC(=O)OCC1c2ccccc2-c2ccccc21)C(=O)O
Ki [11]: 74 µM
Ki [12]: 36 µM

O=C(O)[C@@H](Cc1ccc2c(c1)OCO2)[C@H](Cc1ccc2c(c1)OCO2)C(=O)O
IC50 [13]: 9 nM

COC1OC(C)=Cc2oc3cc(O)c(O)c(C(=O)O)c3c(=O)c21 (stereo unspecified)
Ki [14]: 3.4 µM
Ki [4]: 79000 nM
Ki [15]: 17 µM

CCOC(=O)CCS
INH [15]: 0.25 µM

O=C(c1ccccc1)C(C(=O)c1ccccc1)(c1cccc2ccccc12)P(=O)(O)O
IC50 ([16]; read-out: IC50): 1.4 µM

O=S(=O)(N/N=C/c1c2ccccc2cc2ccccc12)c1ccc2ccccc2c1
Ki [17]: 20 nM
IC50 [15]: 1600 nM

CCOC(=O)CS
INH [15]: 1.4 µM

O=P(O)(O)c1ccccc1S
IC50 [8]: 350 µM

CC(NC(=O)COc1ccccc1)C(=O)C(F)(F)F (stereo unspecified)
Ki [1]: 1500 nM
Ki [2]: 1500 nM
Ki [3]: 1500 nM
Ki [4]: 1500 nM

O=C(O)CS
INH [15]: 0.23 µM

C[C@H](NC(=O)[C@H](Cc1ccc(C(=O)O)cc1)NC(=O)[C@H](CCC(=O)O)NC(=O)OCC1c2ccccc2-c2ccccc21)C(N)=O (Fmoc-Glu-[Phe(4-COOH)]-Ala-NH2)
Ki [5]: 100 µM
Ki [6]: 161 µM

O=P(O)(O)C(O)c1cccc2ccccc12 (stereo unspecified)
IC50 [16]: Not Active

O=P(O)(O)CCS
IC50 [8]: 3000 µM

SCc1ccccc1 [BENZENEMETHANETHIOL]
IC50 [9]: 9.2 µM

COC(=O)c1c(O)ccc2nc3c(C(=O)O)cccc3nc12
IC50 (Beta-lactamase L1): 1000 nM

CC(=O)Oc1cc(C[C@H](NC(=O)[C@H](CCC(=O)O)NC(=O)OCC2c3ccccc3-c3ccccc32)C(=O)N[C@@H](C)C(N)=O)ccc1OCC(=O)O
Ki [5]: 413 µM
Ki [6]: 777 µM

OCCS
INH [15]: 12 µM

C[C@H](NC(=O)[C@H](Cc1ccc(OC(C(=O)O)C(=O)O)cc1)NC(=O)[C@H](CCC(=O)O)NC(=O)OCC1c2ccccc2-c2ccccc21)C(=O)O
Ki [11]: 26 µM
Ki [12]: 14 µM

O=P(O)(O)C(Cc1ccc(-c2ccccc2)cc1)c1cccc2ccccc12 (stereo unspecified)
IC50 ([16]; read-out: IC50): 6.3 µM

O=C(O)CP(=O)(O)O [FOSFONET]
Ki [8]: 590 µM

CC(=O)N[C@H]1[C@H](O[C@H]2C[C@@H](C(=O)NCCS(=O)(=O)O)N[C@@H]2CO)O[C@H](CO)[C@@H](OS(=O)(=O)O)[C@@H]1O [BULGECIN A]
IC50 [18]: 230 µM

O=P(O)(O)Cc1cccc2ccccc12
IC50 ([16]; read-out: IC50): 30 µM

O[C@H](CS)[C@H](O)CS
INH [15]: 0.55 µM

CC(S)C(=O)O (stereo unspecified)
INH [15]: 0.19 µM

O=C(COc1ccccc1)NC(Cc1ccccc1)C(O)C(F)(F)F (stereo unspecified)
Ki [1]: 1500 nM
Ki [2]: 1500 nM
Ki [3]: 1500 nM
Ki [4]: 1500 nM

O=C(O)c1cccc(C(=O)O)n1 [DIPICOLINIC ACID]
IC50 [3]: 7.8 µM
IC50 [4]: 21.8 µM

COC(=O)c1cc(SCC(NC(C)=O)C(=O)OC)cc2nc3c(C(=O)O)cccc3nc12 (stereo unspecified)
IC50 (Beta-lactamase L1): 1000 nM

N[C@@H](CCCC[N+](=O)[O-])C(=O)O
Ki [19]: 60 µM
Ki [20]: 11 µM

O=P(O)(O)CCCS
IC50 [8]: 160 µM

C[C@H](NC(=O)[C@H](Cc1ccc(OCC(=O)O)c(C(=O)O)c1)NC(=O)[C@H](CCC(=O)O)NC(=O)OCC1c2ccccc2-c2ccccc21)C(N)=O
Ki [5]: 112 µM
Ki [6]: 146 µM

C[C@H](NC(=O)[C@H](Cc1ccc(C(C(=O)O)C(=O)O)cc1)NC(=O)[C@H](CCC(=O)O)NC(=O)OCC1c2ccccc2-c2ccccc21)C(N)=O
Ki [5]: 6 µM
Ki [6]: 38 µM

O=C(COc1ccccc1)NC(Cc1ccccc1)C(=O)C(F)(F)F (stereo unspecified)
Ki [1]: 1500 nM
Ki [2]: 1500 nM
Ki [3]: 1500 nM
Ki [4]: 1500 nM

OCCCS
INH [15]: 2.5 µM

N=C(NO)NCC[C@H](N)C(=O)O [NOR-NOHA]
IC50 (Arginase-1): 2000 nM
IC50 [21]: 50 µM

O[C@H](CS)[C@@H](O)CS
INH [15]: 2.2 µM

C[C@H](NC(=O)[C@H](Cc1ccc(C(F)(F)P(=O)(O)O)cc1)NC(=O)[C@H](CCC(=O)O)NC(=O)OCC1c2ccccc2-c2ccccc21)C(=O)O (Fmoc-Glu-[F2Pmp]-Ala-OH)
Ki [11]: 63 µM
Ki [12]: 67 µM

O=C(O)c1ccccc1S [THIOSALICYLIC ACID]
Ki [9]: 9200 nM

O=C(O)CCS
INH [15]: 1.2 µM
